# Results published in ChEMBL document CHEMBL1158459, “Discovery of a peroxisome proliferator activated receptor gamma (PPARgamma) modulator with balanced PPARalpha activity for the treatment of type 2 diabetes and dyslipidemia” (J Med Chem, 2009).
# Active and inactive are the calls of the source. The calls are words filed in the database; no cut-off is given here.
# Experiments:
# Mus musculus [1] = experiment: Antidiabetic activity in C57BLKS/J-m+/+Leprdb db/db mouse assessed as reduction in plasma triglyceride levels at 10 mg/kg, po once daily for 11 days relative to control; format: functional; parameters: scale not given: the % may be the effect or the level left
# [2] = target: T1, Peroxisome proliferator-activated receptor alpha (Mus musculus, UniProt P23204); experiment: Agonist activity at mouse PPARalpha receptor expressed in african green monkey COS1 cells co-transfected with fused yeast Gal4-DBD by transactivation assay; format: functional, cell-based, COS-1
# T1 sequence (P23204 whole entry): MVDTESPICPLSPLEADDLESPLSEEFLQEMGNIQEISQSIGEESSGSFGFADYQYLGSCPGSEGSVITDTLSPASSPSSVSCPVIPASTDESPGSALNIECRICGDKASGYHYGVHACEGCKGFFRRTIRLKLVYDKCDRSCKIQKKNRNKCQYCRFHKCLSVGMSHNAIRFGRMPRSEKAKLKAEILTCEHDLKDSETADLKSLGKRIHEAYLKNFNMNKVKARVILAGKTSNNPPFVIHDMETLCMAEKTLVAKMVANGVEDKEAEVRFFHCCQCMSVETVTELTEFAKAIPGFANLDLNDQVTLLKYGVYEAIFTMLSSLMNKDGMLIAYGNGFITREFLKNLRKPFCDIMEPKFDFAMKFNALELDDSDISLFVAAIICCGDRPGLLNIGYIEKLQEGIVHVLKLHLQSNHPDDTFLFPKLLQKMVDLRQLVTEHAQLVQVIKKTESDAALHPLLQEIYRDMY
# Mus musculus [3] = experiment: Antidiabetic activity in C57BLKS/J-m+/+Leprdb db/db mouse assessed as reduction in plasma glucose levels at 10 mg/kg, po once daily for 11 days relative to control; format: functional; parameters: scale not given: the % may be the effect or the level left
# [4] = target: T2, Peroxisome proliferator-activated receptor alpha (Homo sapiens, UniProt Q07869); format: functional, cell-based, COS-1
# T2 sequence (Q07869 whole entry): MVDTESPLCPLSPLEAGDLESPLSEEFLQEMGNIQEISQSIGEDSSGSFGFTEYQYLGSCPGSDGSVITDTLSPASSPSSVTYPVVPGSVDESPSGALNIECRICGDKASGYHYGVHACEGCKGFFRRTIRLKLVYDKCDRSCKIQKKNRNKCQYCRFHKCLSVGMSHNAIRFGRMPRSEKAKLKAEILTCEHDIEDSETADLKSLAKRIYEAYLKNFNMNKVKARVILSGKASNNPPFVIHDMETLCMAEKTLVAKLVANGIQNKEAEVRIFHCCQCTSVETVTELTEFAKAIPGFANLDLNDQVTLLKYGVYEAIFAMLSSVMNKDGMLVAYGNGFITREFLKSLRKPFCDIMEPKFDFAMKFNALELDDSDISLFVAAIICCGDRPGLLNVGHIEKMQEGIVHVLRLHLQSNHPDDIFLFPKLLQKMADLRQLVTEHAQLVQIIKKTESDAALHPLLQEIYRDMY
# Description: Agonist activity at human PPARalpha receptor expressed in african green monkey COS1 cells co-transfected with fused yeast Gal4-DBD by transactivation assay
# [5] = target: T2, Peroxisome proliferator-activated receptor alpha; experiment: Inhibition of human PPARalpha receptor by scintillation proximity assay
# [6] = target: T3, Peroxisome proliferator-activated receptor gamma (Homo sapiens, UniProt P37231)
# T3 sequence (P37231 whole entry): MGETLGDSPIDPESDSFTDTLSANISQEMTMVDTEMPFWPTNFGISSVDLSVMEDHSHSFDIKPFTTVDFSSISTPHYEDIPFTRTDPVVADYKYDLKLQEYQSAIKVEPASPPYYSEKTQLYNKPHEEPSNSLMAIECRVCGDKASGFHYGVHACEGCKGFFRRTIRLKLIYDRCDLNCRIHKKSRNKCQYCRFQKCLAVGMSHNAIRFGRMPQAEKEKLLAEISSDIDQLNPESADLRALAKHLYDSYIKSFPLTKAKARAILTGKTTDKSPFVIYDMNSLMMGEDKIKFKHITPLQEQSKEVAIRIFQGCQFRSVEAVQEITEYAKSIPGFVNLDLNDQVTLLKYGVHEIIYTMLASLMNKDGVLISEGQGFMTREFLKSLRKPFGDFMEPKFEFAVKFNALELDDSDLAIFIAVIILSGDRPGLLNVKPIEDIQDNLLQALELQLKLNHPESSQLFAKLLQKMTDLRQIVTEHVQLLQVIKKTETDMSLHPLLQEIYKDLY
# Description: Inhibition of human PPARgamma receptor by scintillation proximity assay
# [7] = target: T3, Peroxisome proliferator-activated receptor gamma; remark: listed apart in the source
# Description: (§2) Agonist activity at human PPARgamma receptor expressed in african green monkey COS1 cells co-transfected with fused yeast Gal4-DBD by transactivation assay
# [8] = (§1) AUC in rat at 2 mg/kg, po; format: ADME, organism-based, Plasma; parameters: dose 2 mg/kg, route oral; details: plasma
# [9] = target: T3, Peroxisome proliferator-activated receptor gamma; details: cos-1
# Description: as §2
# Rattus norvegicus [10] = experiment: as §1; format: ADME, organism-based, Plasma; parameters: dose 2 mg/kg, route oral; details: in vivo
# [11] = AUC in C57BLKS/J-m+/+Leprdb db/db mouse at 10 mg/kg, po once daily for 11 days; format: ADME, organism-based; parameters: dose 10 mg/kg, route oral; details: plasma
# [12] = AUC in Syrian golden hamster at 100 mg/kg, po once daily for 9 days; format: ADME, organism-based, Mesocricetus auratus; parameters: dose 100 mg/kg, route oral; details: plasma
# [13] = AUC in Beagle dog at 50 mg/kg, po once daily for 14 days; format: ADME, organism-based, Canis lupus familiaris; parameters: dose 50 mg/kg, route oral; details: plasma
# [14] = AUC in Sprague-Dawley rat at 300 mg/kg, po once daily for 14 days; format: ADME, organism-based; parameters: dose 300 mg/kg, route oral; details: plasma
# Syrian golden hamster [15] = experiment: Antidiabetic activity in Syrian golden hamster assessed as reduction in cholesterol level at 100 mg/kg, po once daily for 9 days relative to control; format: functional, Mesocricetus auratus; parameters: scale not given: the % may be the effect or the level left
# [16] = Cmax in Beagle dog at 50 mg/kg, po once daily for 14 days; format: ADME, organism-based, Canis lupus familiaris; parameters: dose 50 mg/kg, route oral; details: in vivo
# Syrian golden hamster [17] = experiment: Antidiabetic activity in Syrian golden hamster assessed as reduction in triglyceride level at 100 mg/kg, po once daily for 9 days relative to control; format: functional, Mesocricetus auratus; parameters: scale not given: the % may be the effect or the level left
# Canis familiaris [18] = experiment: Antidiabetic activity in Beagle dog assessed as reduction in total cholesterol level at 50 mg/kg, po once daily for 14 days relative to control; format: functional, Canis lupus familiaris; parameters: scale not given: the % may be the effect or the level left
# Canis familiaris [19] = experiment: Antidiabetic activity in Beagle dog assessed as reduction in total cholesterol level at 4 mg/kg, po once daily for 14 days relative to control; format: functional, Canis lupus familiaris; parameters: scale not given: the % may be the effect or the level left
# Rattus norvegicus [20] = experiment: Antidiabetic activity in Zucker fa/fa rat assessed as decrease in triglyceride levels at 15 mg/kg, po once daily for 7 days; format: functional, organism-based; parameters: dose 15 mg/kg
# Rattus norvegicus [21] = experiment: Antidiabetic activity in Zucker fa/fa rat assessed as decrease in triglyceride levels at 3 mg/kg, po once daily for 7 days; format: functional, organism-based; parameters: dose 3 mg/kg
# [22] = Cmax in C57BLKS/J-m+/+Leprdb db/db mouse at 10 mg/kg, po once daily for 11 days; format: ADME, organism-based; parameters: dose 10 mg/kg, route oral; details: in vivo
# Rattus norvegicus [23] = experiment: Antidiabetic activity in Zucker fa/fa rat assessed as decrease in triglyceride levels at 10 mg/kg, po once daily for 7 days; format: functional, organism-based; parameters: dose 10 mg/kg
# Rattus norvegicus [24] = experiment: Antidiabetic activity in Zucker fa/fa rat assessed as decrease in triglyceride levels at 0.3 mg/kg, po once daily for 7 days; format: functional, organism-based; parameters: dose 0.3 mg/kg
# Rattus norvegicus [25] = experiment: Antidiabetic activity in Zucker fa/fa rat assessed as decrease in triglyceride levels at 0.03 mg/kg, po once daily for 7 days; format: functional, organism-based; parameters: dose 0.03 mg/kg
# Rattus norvegicus [26] = experiment: Antidiabetic activity in Zucker fa/fa rat assessed as decrease in triglyceride levels at 1 mg/kg, po once daily for 7 days; format: functional, organism-based; parameters: dose 1 mg/kg
# Rattus norvegicus [27] = experiment: Antidiabetic activity in Zucker fa/fa rat assessed as decrease in triglyceride levels at 100 mg/kg, po once daily for 7 days; format: functional, organism-based; parameters: dose 100 mg/kg
# Mus musculus [28] = experiment: Antidiabetic activity in high fat diet-fed streptozotocin-treated mouse assessed as reduction in plasma glucose levels at 30 mg/kg, po once daily for 12 days relative to control; format: functional; parameters: scale not given: the % may be the effect or the level left
# [29] = AUC in Sprague-Dawley rat at 150 mg/kg, po once daily for 14 days; format: ADME, organism-based; parameters: dose 150 mg/kg, route oral; details: plasma
# Rattus norvegicus [30] = experiment: Antidiabetic activity in po dosed Zucker fa/fa rat assessed as insulin lowering activity treated once daily for 7 days; format: functional
# Mus musculus [31] = experiment: Antidiabetic activity in high fat diet-fed streptozotocin-treated mouse assessed as reduction in plasma glucose levels at 5 mg/kg, po once daily for 12 days relative to control; format: functional; parameters: scale not given: the % may be the effect or the level left
Compound,Activity (Mus musculus [1]),EC50 [2],Activity (Mus musculus [3]),EC50 [4],IC50 [5],IC50 [6],EC50 [7],AUC [8],other results
Cc1c(C(=O)c2ccc(Cl)cc2)c2ccc(OC(F)(F)F)cc2n1Cc1cccc(O[C@H](C)C(=O)O)c1,90%,28 nM,105%,320 nM,> 15000 nM,11 nM,4 nM,1.1 µM·h,
CCC[C@H](Oc1cccc(Cn2c(C)c(C(=O)c3ccc(Cl)cc3)c3ccc(OC(F)(F)F)cc32)c1)C(=O)O,8%,> 3000 nM,22%,> 3000 nM,> 50000 nM,8 nM,1 nM,1.2 µM·h,
Cc1c(Cc2cccc(OCC(=O)O)c2)c2cc(OC(F)(F)F)ccc2n1C(=O)c1ccc(Cl)cc1,,> 3000 nM,,> 3000 nM,> 15000 nM,1 nM,3 nM,,
CC[C@@](C)(Oc1cccc(Cn2c(C)c(C(=O)c3ccc(Cl)cc3)c3ccc(OC(F)(F)F)cc32)c1)C(=O)O (stereo in doubt; 12i),,,,107 nM,87 nM,9 nM,,,EC50 [9]: 2 nM; Activity (Mus musculus [1]; 10 mg/kg): 51%; EC50 ([2]; cos-1): > 1000 nM; Activity (Mus musculus [3]; 10 mg/kg): 71%; AUC (Rattus norvegicus [10]): 1.3 µM·h
CCc1ccc(CCOc2ccc(CC3SC(=O)NC3=O)cc2)nc1 (stereo unspecified) [PIOGLITAZONE],65%,,53%,,,,,,AUC at 264 h [11]: 180 µM·h
CC[C@H](Oc1cccc(Cn2c(C)c(C(=O)c3ccc(Cl)cc3)c3ccc(OC(F)(F)F)cc32)c1)C(=O)O,7%,> 3000 nM,22%,500 nM,> 15000 nM,4 nM,6 nM,,
Cc1c(C(=O)c2ccc(Cl)cc2)c2ccc(OC(F)(F)F)cc2n1Cc1cccc(O[C@H](C(=O)O)C(C)C)c1,37%,360 nM,76%,370 nM,2980 nM,17 nM,21 nM,1.5 µM·h,
Cc1c(C(=O)c2ccc(Cl)cc2)c2ccc(OC(F)(F)F)cc2n1Cc1cccc(OCC(=O)O)c1,,350 nM,,> 3000 nM,> 15000 nM,2 nM,2 nM,,
CCC[C@@H](Oc1cccc(Cn2c(C)c(C(=O)c3ccc(Cl)cc3)c3ccc(OC(F)(F)F)cc32)c1)C(=O)O,80%,110 nM,94%,380 nM,> 15000 nM,12 nM,10 nM,1.7 µM·h,
CC(C)OC(=O)C(C)(C)Oc1ccc(C(=O)c2ccc(Cl)cc2)cc1 [FENOFIBRATE],,,,,,,,,AUC at 216 h [12]: 1800 µM·h; AUC at 336 h [13]: 117 µM·h; AUC at 336 h [14]: 5600 µM·h; Activity (Syrian golden hamster [15]): 22.7%; Cmax [16]: 15 µM; Activity (Syrian golden hamster [17]): 33.7%; Activity (Canis familiaris [18]): 17%
CC[C@@](C)(Oc1cccc(Cn2c(C)c(C(=O)c3ccc(Cl)cc3)c3ccc(OC(F)(F)F)cc32)c1)C(=O)O (stereo in doubt; 12j),,> 1000 nM,,129 nM,764 nM,5 nM,2 nM,,Activity (Mus musculus [1]; 10 mg/kg): 3%; Activity (Mus musculus [3]; 10 mg/kg): 45%; AUC (Rattus norvegicus [10]): 2.8 µM·h
Cc1c(C(=O)c2ccc(Cl)cc2)c2ccc(OC(F)(F)F)cc2n1Cc1cccc(O[C@@H](C)C(=O)O)c1,4%,> 3000 nM,53%,4890 nM,> 15000 nM,,,0.6 µM·h,
CCC(C)(C)C(=O)O[C@H]1C[C@@H](C)C=C2C=C[C@H](C)[C@H](CC[C@@H]3C[C@@H](O)CC(=O)O3)[C@H]21 [SIMVASTATIN],,,,,,,,,Activity (Canis familiaris [19]): 18.4%
Cc1c(C(=O)c2ccc(Cl)cc2)c2ccc(OC(F)(F)F)cc2n1Cc1cccc(O[C@@H](C(=O)O)C(C)C)c1,87%,40 nM,101%,2 nM,491 nM,10 nM,2 nM,3.5 µM·h,
Cc1c(C(=O)c2ccc(Cl)cc2)c2ccc(OC(F)(F)F)cc2n1Cc1cccc(OC2(C(=O)O)CCC2)c1,,150 nM,,185 nM,1080 nM,16 nM,12 nM,,
CN(CCOc1ccc(CC2SC(=O)NC2=O)cc1)c1ccccn1 (stereo unspecified) [ROSIGLITAZONE],71%,> 3000 nM,76%,,,,,16.4 µM·h,Activity (Rattus norvegicus [20]): Active; Activity (Rattus norvegicus [21]): Active; Cmax [22]: 68 µM; Activity (Rattus norvegicus [23]): Active; Activity (Rattus norvegicus [24]): Active; Activity (Rattus norvegicus [25]): Active; Activity (Rattus norvegicus [26]): Active; Activity (Rattus norvegicus [27]): Active; Activity (Mus musculus [28]): 45%; AUC at 336 h [29]: 600 µM·h; ED50 (Rattus norvegicus [30]): 25 µM·h; Activity (Mus musculus [31]): 36%
